The results in this text go back to patent US11246882B2, “Pharmaceutical composition for inhibiting resistance against anticancer drugs of patient suffering from ovarian cancer comprising NAG-1 inhibitor as active ingredient” (PUSAN NATIONAL UNIVERSITY INDUSTRY-UNIVERSITY COOPERATION …, priority 2015, dated 2022).

The test system of data set [1] is ovarian cancer cells. The experiment in a line: Treatment of ovarian cancer cells with the anticancer drug Taxol. The data set is classed as cell-based. Particulars: ovarian cancer cells other than stem cells.
Data set [2] deals with ovarian cancer stem cells (R182). As to the kind of experiment: Cell viability by MTT assay: resistance of ovarian cancer stem cells against Taxol under NAG-1 regulation. The data set is classed as cell-based, Human. As for the experimental part: Human epithelial ovarian cancer stem cell line R182 cells were provided by Prof. Gil Mor (Yale University School of Medicine). A2780 cells were purchased from American Type Culture Collection (Manassas, Va.). Cells were maintained in RPMI 1640 medium (supplemented with 20% [v/v] heat-inactivated FBS, 50 U/ml penicillin, and […] streptomycin) in a 5% CO2 humidified incubator at 37° C. Cell numbers were counted by trypan blue (Sigma-Aldrich, St. Louis, Mo., USA) using a hemocytometer according to dye exclusion assay.
200 μl of the cultured cancer cells were seeded into a 96-well plate to have 5×10^3 cells/well, and cultured for 24 hours at a temperature of 37° C. in a wet incubator with carbon 5% and […] supplied thereto. Then, an empty vector (pSilencer 4.1-CMV-neo vector, Ambion, USA) and shRNA specific to NAG-1 were added to the ovarian cancer cells, cultured for 48 hours, and treated for 48 hours with an anticancer drug, Taxol, according to the concentrations. 50 μl of MTT solution (1 mg/ml) in PBS was added to each well, and cultured again for 6 hours. After the formation of formazan was confirmed, the MTT solution was completely removed. […] Afterwards, a micro plate reader (Molecular Devices, USA) was used to measure absorbance at 560 nm. Accordingly, the relative cell viability was calculated when cells that were not treated with an anticancer drug was considered as 100%. […]
On the technique in general: Tetrazolium dyes change colour on reduction, which living cells bring about.

In the case of `CC(=O)O[C@H]1C(=O)[C@@]2(C)[C@H]([C@H](OC(=O)c3ccccc3)[C@]3(O)C[C@H](OC(=O)[C@H](O)[C@@H](NC(=O)c4ccccc4)c4ccccc4)C(C)=C1C3(C)C)[C@]1(OC(C)=O)CO[C@@H]1C[C@@H]2O` [Taxol], the “cell death of ovarian cancer cells on treatment with anticancer drug” value in data set [1] is “ovarian cancer cells die”. Further, the “cell death of ovarian cancer stem cells on treatment with anticancer drug” value in data set [2] (ovarian cancer stem cells) is “ovarian cancer stem cells did not die”.
Consider “shRNA specific to NAG-1: shRNA having SEQ ID NO: 1 (ACAUGCACGCGCAGAUCAA), inhibitor of expression of NAG-1 protein; expression vector”, for which the “resistance against the anticancer drug (Taxol), amount of living cells by MTT assay” value in data set [2] (R182 cells, shRNA added, cultured 48 hours, then Taxol 48 hours, compared with empty vector (FIG. 5)) was “the resistance against the anticancer drug was reduced”.
